From patent US11179376B2, “Salts of pyrazolo[1,5-a]pyridine derivative and use thereof” (SUNSHINE LAKE PHARMA CO., LTD., priority 2017, dated 2021)
Counter-ions that a name gives are not always drawn. Like-named read-outs stand apart in the source and are kept apart here.

Test: Pharmacokinetics test in beagle dogs (capsule by gavage, plasma LC/MS/MS)
Assay type: in vivo
Experimental: The LC/MS/MS system used in the analysis consists of an Agilent 1200 Series vacuum degasser, binary pump, well-plate autosampler, thermostated column compartment, the Agilent G6430 Triple Quadrupole Mass Spectrometer with an electrosprayionization (ESI) source. Quantitative analysis was carried out using MRM mode. The parameters for MRM transitions are in the Table A.
An Agilent XDB-C18, 2.1×30 mm, 3.5 μM column was used for the analysis. 5 μL of the samples were injected. Analysis condition: The mobile phase was 0.1% formic acid in water (A) and 0.1% formic acid in methanol (B). The flow rate was 0.4 mL/min. And the gradient of Mobile phase was in the Table B.
An ESI source was used on the LC/MS/MS spectrometer. The analysis was done in positive ion mode as appropriate and the MRM transition for each analyte was optimized using standard solution. A Capcell MP-C18 100×4.6 mm I.D., […] column (Phenomenex, Torrance, Calif., USA) was used during the analysis. The mobile phase was 5 mM ammonia acetate, 0.1% MeOH in water (A): 5 mM ammonia acetate, 0.1% MeOH in acetonitrile (B) (70/30, v/v). The flow rate was 0.6 mL/min. Column was maintained at ambient temperature. 20 μL of the samples were injected.
The blood samples (0.3 mL) were drawn at 0.25, 0.5, 1.0, 2.0, 3.0, 4.0, 6.0, 8.0, 12 and 24 hour time points or 0.083, 0.25, 0.5, 1.0, 2.0, 4.0, 6.0, 8.0 and 24 hour time points and centrifuged at 3,000 or 4000 rpm for 2 to 10 min. The plasma solutions were collected, and analyzed by LC/MS/MS as described above. The pharmacokinetic parameters were calculated according to non-compartment model using WinNonlin procedure.

[1] = capsule by gavage, dose 2.5 mg/kg, plasma

Work on `COc1ncc(-c2ccn3ncc(C#N)c3c2)cc1NS(=O)(=O)c1ccc(F)cc1F` [crystalline form B of mono-sodium salt, N-(5-(3-cyanopyrazolo[1,5-α]pyridin-5-yl)-2-methoxypyridin-3-yl)-2,4-difluorobenzenesulfonamide] yielded an AUClast [1] of 9370 ng·h/mL, a Cmax [1] of 4530 ng/mL and a Tmax [1] of 0.583 h.
`COc1ncc(-c2ccn3ncc(C#N)c3c2)cc1NS(=O)(=O)c1ccc(F)cc1F` [amorphous form of mono-sodium salt, N-(5-(3-cyanopyrazolo[1,5-α]pyridin-5-yl)-2-methoxypyridin-3-yl)-2,4-difluorobenzenesulfonamide] gave an AUClast [1] of 7290 ng·h/mL, a Cmax [1] of 2180 ng/mL and a Tmax [1] of 1.33 h.
`COc1ncc(-c2ccn3ncc(C#N)c3c2)cc1NS(=O)(=O)c1ccc(F)cc1F` [Compound of formula (I), N-(5-(3-cyanopyrazolo[1,5-α]pyridin-5-yl)-2-methoxypyridin-3-yl)-2,4-difluorobenzenesulfonamide] gave an AUC(0-t) (dog, po, capsule by gavage, dose 2.5 mg/kg, plasma) of 1550 ng·h/mL, a Cmax (dog, po, capsule by gavage, dose 2.5 mg/kg, plasma, read-out: Cmax) of 482 ng/mL and a Tmax (dog, po, capsule by gavage, dose 2.5 mg/kg, plasma, read-out: Tmax) of 1.67 h.
Molecule `COc1ncc(-c2ccn3ncc(C#N)c3c2)cc1NS(=O)(=O)c1ccc(F)cc1F` [crystalline form C of mono-sodium salt, N-(5-(3-cyanopyrazolo[1,5-α]pyridin-5-yl)-2-methoxypyridin-3-yl)-2,4-difluorobenzenesulfonamide] has an AUClast [1] of 5700 ng·h/mL, a Cmax [1] of 1410 ng/mL and a Tmax [1] of 2.33 h.
In the case of `COc1ncc(-c2ccn3ncc(C#N)c3c2)cc1NS(=O)(=O)c1ccc(F)cc1F` [crystalline form A of mono-lithium salt, N-(5-(3-cyanopyrazolo[1,5-α]pyridin-5-yl)-2-methoxypyridin-3-yl)-2,4-difluorobenzenesulfonamide], the AUClast [1] is reported as 4290 ng·h/mL, the Cmax [1] is reported as 1640 ng/mL and the Tmax [1] is reported as 1.5 h.
In the case of `COc1ncc(-c2ccn3ncc(C#N)c3c2)cc1NS(=O)(=O)c1ccc(F)cc1F` [crystalline form A of mono-sodium salt, N-(5-(3-cyanopyrazolo[1,5-α]pyridin-5-yl)-2-methoxypyridin-3-yl)-2,4-difluorobenzenesulfonamide], the AUClast [1] is reported as 8730 ng·h/mL, the Cmax [1] is reported as 2820 ng/mL and the Tmax [1] is reported as 2.5 h.
In the case of `COc1ncc(-c2ccn3ncc(C#N)c3c2)cc1NS(=O)(=O)c1ccc(F)cc1F` [N-(5-(3-cyanopyrazolo[1,5-α]pyridin-5-yl)-2-methoxypyridin-3-yl)-2,4-difluorobenzenesulfonamide], the “exposure and bioavailability in vivo” value (Cmax and AUClast much larger than those of compound of formula (I)) is reported as “good exposure and bioavailability”, the AUClast [1] is reported as 8420 ng·h/mL and the Cmax [1] is reported as 3050 ng/mL. The Tmax [1] was 0.667 h.
`COc1ncc(-c2ccn3ncc(C#N)c3c2)cc1NS(=O)(=O)c1ccc(F)cc1F` [crystalline form A of mono-choline salt, N-(5-(3-cyanopyrazolo[1,5-α]pyridin-5-yl)-2-methoxypyridin-3-yl)-2,4-difluorobenzenesulfonamide] gave an AUClast [1] of 9130 ng·h/mL, a Cmax [1] of 3220 ng/mL and a Tmax [1] of 1.08 h.
